These results are taken from ChEMBL document CHEMBL1641425, “Discovery of 1-(3,4-dichlorophenyl)-N,N-dimethyl-1,2,3,4-tetrahydroquinolin-4-amine, a dual serotonin and dopamine reuptake inhibitor” (Bioorg Med Chem Lett, 2011).

For orientation: IC50 means the concentration at which inhibition is half-maximal. A word on the half-life: it is the time needed for the level to fall by half in the phase considered. Low readings indicate fast loss, high ones slow loss.

Series [1] concerns the target Sodium-dependent dopamine transporter (Homo sapiens, UniProt Q01959). Description: Inhibition of human recombinant dopamine transporter.
Series [2] addresses Sodium-dependent serotonin transporter (Homo sapiens, UniProt P31645). Description: Inhibition of human recombinant 5HT transporter.
Series [3] in a line: Inhibition of CYP1A. The class given is ADME.
The target in a further series is Cytochrome P450 2C9 (Homo sapiens, UniProt P11712). Briefly: Inhibition of CYP2C9. The format is ADME.
Chain of Cytochrome P450 2C9 (P11712 whole entry): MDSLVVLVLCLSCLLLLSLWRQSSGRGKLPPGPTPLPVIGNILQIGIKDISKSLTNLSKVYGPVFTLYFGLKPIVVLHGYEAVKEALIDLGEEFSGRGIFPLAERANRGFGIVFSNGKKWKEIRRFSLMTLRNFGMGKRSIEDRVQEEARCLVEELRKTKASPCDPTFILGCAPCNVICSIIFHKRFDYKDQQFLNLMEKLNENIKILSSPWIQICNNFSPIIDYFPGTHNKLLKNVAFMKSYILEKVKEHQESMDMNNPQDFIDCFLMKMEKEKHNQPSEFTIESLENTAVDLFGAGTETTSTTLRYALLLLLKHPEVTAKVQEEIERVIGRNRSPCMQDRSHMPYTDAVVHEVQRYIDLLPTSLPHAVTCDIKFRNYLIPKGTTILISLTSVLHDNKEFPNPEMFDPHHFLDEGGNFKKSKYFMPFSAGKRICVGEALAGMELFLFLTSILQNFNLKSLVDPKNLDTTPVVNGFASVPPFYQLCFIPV
Series [4] concerns the target Sodium-dependent noradrenaline transporter (Homo sapiens, UniProt P23975). Description: Inhibition of human recombinant norepinephrine transporter.
A short description of series [5]: Half life in mouse microsomes. The class given is ADME, Microsome.
Another series addresses Cytochrome P450 3A4 (Homo sapiens, UniProt P08684). Description: Inhibition of CYP3A4. The class given is ADME.
The nature of series [6]: Half life in human microsomes. The class given is ADME, Microsome.
The target of series [7] is Voltage-gated inwardly rectifying potassium channel KCNH2 (Homo sapiens, UniProt Q12809).
Chain of Voltage-gated inwardly rectifying potassium channel KCNH2 (Q12809 whole entry): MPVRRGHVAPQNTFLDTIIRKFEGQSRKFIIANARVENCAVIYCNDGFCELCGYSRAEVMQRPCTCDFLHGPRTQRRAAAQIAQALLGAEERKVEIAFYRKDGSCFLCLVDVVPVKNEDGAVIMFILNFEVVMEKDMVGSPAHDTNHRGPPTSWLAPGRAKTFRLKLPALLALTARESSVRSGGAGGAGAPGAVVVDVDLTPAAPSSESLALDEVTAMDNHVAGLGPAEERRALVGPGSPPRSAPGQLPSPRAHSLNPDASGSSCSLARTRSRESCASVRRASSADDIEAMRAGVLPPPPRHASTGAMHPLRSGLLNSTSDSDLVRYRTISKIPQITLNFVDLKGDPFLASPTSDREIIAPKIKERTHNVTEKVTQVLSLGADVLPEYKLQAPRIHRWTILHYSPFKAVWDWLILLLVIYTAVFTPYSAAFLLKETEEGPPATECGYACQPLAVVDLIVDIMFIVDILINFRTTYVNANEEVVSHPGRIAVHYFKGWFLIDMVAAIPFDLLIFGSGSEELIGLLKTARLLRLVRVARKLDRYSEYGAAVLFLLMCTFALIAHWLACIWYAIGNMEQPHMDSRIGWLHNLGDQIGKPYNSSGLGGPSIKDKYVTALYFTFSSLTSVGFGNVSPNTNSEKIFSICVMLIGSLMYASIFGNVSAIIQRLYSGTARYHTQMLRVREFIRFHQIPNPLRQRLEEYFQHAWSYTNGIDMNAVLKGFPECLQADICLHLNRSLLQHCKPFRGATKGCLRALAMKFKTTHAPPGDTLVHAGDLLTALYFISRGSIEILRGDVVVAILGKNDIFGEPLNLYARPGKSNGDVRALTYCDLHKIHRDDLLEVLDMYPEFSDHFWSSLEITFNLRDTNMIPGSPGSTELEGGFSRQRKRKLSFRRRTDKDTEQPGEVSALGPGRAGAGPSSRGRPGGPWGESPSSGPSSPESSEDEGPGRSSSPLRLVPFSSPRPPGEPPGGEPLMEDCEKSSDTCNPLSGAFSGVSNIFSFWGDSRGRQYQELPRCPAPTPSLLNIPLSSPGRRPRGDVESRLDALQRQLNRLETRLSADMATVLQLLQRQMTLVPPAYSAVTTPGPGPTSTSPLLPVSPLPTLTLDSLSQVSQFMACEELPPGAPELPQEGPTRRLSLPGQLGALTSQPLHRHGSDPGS
For the next series, the target named is Cytochrome P450 2C19 (Homo sapiens, UniProt P33261). Briefly: Inhibition of CYP2C19. The format is ADME.
Chain of Cytochrome P450 2C19 (P33261 whole entry): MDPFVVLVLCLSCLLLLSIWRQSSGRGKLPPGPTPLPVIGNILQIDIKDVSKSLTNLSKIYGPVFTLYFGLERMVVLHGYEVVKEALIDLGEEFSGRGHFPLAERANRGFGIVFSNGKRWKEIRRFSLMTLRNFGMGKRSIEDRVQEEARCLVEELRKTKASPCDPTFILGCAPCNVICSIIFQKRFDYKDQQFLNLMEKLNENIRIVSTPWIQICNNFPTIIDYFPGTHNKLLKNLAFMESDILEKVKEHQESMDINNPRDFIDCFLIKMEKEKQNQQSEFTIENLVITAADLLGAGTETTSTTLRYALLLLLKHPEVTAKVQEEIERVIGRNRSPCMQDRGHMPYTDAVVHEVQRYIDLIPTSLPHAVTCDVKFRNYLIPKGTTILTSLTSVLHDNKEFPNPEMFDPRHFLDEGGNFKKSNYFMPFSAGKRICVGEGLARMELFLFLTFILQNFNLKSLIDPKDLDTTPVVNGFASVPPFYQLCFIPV
The next series concerns the target Cytochrome P450 2D6 (Homo sapiens, UniProt P10635). Briefly: Inhibition of CYP2D6. The class given is ADME.

Chain of Cytochrome P450 2D6 (P10635 whole entry): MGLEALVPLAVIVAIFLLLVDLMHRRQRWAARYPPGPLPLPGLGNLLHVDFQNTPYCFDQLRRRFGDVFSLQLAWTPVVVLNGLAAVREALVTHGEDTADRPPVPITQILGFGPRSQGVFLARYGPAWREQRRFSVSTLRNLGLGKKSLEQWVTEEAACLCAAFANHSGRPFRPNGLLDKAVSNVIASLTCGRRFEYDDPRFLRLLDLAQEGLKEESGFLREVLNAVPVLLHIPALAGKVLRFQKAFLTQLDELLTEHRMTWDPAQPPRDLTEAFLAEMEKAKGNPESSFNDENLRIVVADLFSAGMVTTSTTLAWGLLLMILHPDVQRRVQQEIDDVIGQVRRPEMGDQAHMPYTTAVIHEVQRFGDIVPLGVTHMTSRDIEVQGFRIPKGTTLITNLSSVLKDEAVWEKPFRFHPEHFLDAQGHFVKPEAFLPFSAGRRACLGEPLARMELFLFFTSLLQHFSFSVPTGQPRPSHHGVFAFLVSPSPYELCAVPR
Chain of Sodium-dependent dopamine transporter (Q01959 whole entry): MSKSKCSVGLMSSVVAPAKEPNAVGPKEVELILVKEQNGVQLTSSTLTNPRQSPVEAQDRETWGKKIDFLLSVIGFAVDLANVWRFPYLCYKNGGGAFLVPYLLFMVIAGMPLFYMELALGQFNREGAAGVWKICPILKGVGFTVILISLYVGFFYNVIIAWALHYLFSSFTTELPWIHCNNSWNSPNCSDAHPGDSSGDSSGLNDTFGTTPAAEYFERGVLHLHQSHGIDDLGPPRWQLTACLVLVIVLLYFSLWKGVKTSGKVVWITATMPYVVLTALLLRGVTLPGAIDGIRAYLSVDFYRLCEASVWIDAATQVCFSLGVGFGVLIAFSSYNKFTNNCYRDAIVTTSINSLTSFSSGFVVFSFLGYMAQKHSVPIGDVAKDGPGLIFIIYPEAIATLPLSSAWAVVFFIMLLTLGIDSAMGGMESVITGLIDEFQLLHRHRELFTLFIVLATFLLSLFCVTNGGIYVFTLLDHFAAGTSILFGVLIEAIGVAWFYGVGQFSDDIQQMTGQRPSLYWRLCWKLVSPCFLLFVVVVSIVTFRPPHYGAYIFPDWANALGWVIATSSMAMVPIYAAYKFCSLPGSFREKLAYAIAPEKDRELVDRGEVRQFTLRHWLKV
Chain of Sodium-dependent serotonin transporter (P31645 whole entry): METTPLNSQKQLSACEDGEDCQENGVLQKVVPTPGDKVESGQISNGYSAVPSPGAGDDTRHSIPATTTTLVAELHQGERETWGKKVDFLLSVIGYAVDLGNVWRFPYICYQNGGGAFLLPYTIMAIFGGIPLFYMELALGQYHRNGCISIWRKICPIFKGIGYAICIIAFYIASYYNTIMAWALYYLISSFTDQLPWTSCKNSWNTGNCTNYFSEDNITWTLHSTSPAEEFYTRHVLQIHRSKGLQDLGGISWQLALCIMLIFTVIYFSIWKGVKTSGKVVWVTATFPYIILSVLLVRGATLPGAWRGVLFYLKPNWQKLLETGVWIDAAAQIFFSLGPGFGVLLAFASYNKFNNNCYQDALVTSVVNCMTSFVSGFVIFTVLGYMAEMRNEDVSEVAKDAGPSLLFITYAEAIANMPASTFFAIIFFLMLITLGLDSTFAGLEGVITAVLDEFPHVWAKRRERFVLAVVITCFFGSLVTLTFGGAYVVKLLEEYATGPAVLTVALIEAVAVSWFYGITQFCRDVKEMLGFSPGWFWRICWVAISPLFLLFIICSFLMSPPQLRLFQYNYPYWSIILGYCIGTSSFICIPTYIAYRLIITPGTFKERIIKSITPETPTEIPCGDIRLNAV
Chain of Cytochrome P450 3A4 (P08684 whole entry): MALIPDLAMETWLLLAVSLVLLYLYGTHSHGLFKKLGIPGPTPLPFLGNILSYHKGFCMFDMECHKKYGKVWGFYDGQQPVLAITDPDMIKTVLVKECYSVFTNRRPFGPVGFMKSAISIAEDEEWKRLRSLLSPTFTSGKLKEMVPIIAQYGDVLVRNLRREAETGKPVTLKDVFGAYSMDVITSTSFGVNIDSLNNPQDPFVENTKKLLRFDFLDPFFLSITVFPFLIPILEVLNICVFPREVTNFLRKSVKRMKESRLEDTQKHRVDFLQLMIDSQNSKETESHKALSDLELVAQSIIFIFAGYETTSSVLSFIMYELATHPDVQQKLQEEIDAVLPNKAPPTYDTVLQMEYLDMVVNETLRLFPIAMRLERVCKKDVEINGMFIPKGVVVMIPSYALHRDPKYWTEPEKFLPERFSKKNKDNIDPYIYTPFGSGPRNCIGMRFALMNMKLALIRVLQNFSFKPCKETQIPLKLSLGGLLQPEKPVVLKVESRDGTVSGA
Chain of Sodium-dependent noradrenaline transporter (P23975 whole entry): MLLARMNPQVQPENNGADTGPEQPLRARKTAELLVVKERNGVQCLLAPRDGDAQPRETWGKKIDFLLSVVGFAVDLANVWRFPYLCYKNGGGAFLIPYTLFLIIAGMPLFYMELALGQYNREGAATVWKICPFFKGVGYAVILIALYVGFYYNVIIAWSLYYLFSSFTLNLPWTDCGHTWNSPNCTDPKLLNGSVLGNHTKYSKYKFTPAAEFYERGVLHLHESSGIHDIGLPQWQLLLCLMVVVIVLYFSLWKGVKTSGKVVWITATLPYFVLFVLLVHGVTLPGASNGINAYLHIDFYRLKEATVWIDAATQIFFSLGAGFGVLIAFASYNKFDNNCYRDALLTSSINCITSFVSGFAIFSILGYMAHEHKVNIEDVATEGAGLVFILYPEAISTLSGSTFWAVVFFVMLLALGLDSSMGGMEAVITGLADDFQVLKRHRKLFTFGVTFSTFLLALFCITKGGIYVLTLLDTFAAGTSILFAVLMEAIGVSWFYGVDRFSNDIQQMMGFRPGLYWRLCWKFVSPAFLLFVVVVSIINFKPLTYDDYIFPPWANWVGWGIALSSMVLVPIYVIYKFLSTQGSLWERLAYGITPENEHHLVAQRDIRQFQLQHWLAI

Consider `CNC1CCN(c2ccc(Cl)c(Cl)c2)c2ccccc21` (stereo unspecified), for which the IC50 in series [1] is 39 nM; in series [2] it was 20 nM; in [3], above 25000 nM; at Cytochrome P450 2C9, above 25000 nM; in [4], 934 nM; on Cytochrome P450 3A4, above 25000 nM. Moreover, the IC50 in series [7] came to 7800 nM; against Cytochrome P450 2C19, 14100 nM; on Cytochrome P450 2D6, 3000 nM. The half-life stood at 0.367 h in series [5] and 3.32 h in [6].

Take `CN[C@@H]1CCN(c2ccc(Cl)c(Cl)c2)c2ccccc21`: the IC50 in series [1] is 8 nM; in series [2], 132 nM; in series [3], above 25000 nM; on Cytochrome P450 2C9, above 25000 nM; in series [4] it was 601 nM; on Cytochrome P450 3A4, above 25000 nM. Further, the IC50 in series [7] was found to be 3250 nM; at Cytochrome P450 2C19, 19000 nM; on Cytochrome P450 2D6 it was 1500 nM. In addition, the half-life in series [5] and in series [6] was above 5 h each time.

Turning to `CN(C)[C@@H]1CCN(c2ccc(Cl)c(Cl)c2)c2ccccc21`, the IC50 in [1] was 16 nM; in [2] it was 7 nM; in series [3], above 25000 nM; against Cytochrome P450 2C9 it was 250 nM; in [4], 1180 nM; against Cytochrome P450 3A4 it was above 25000 nM. For the same compound, the IC50 against Cytochrome P450 2C19 is above 25000 nM; against Cytochrome P450 2D6, 6020 nM. Moreover, the results for the half-life in series [5] and in [6] were 0.005 h and above 5 h, respectively.

As to `N[C@H]1Cc2ccccc2N(c2ccc(Cl)c(Cl)c2)C1`, the IC50 was 465 nM in [1], 2400 nM in series [2] and 1850 nM in series [4].

In the case of `CNC1Cc2ccccc2N(c2ccc(Cl)c(Cl)c2)C1` (stereo unspecified), the figures for the IC50 in [1], in [2] and in [4] were 177 nM, 985 nM and 1010 nM, respectively.

In the case of `CN[C@H]1Cc2ccccc2N(c2ccc(Cl)c(Cl)c2)C1`, the IC50 in series [1] was 100 nM; in series [2], 128 nM; in series [4], 1250 nM; against Cytochrome P450 2D6 it was 100 nM. Further, the half-life is 0.333 h in [5] and 3.95 h in [6].

Consider `NC1Cc2ccccc2N(c2ccc(Cl)c(Cl)c2)C1` (stereo unspecified), for which the values for the IC50 in series [1], in [2] and in [4] were 605 nM, 2550 nM and 2600 nM, respectively.

As for `CN(C)C1Cc2ccccc2N(c2ccc(Cl)c(Cl)c2)C1` (stereo unspecified), the IC50 is 122 nM in [1], 436 nM in series [2] and 1860 nM in series [4].

On to `CN[C@H]1Cc2ccccc2[C@@H](c2ccc(Cl)c(Cl)c2)C1`, for which the IC50 in series [1] amounted to 72 nM.

For `N[C@@H]1CCN(c2ccc(Cl)c(Cl)c2)c2ccccc21`, the IC50 in series [1] was 12 nM; in series [2] it was 116 nM; in series [3] it was above 25000 nM; at Cytochrome P450 2C9, above 25000 nM; in series [4] it was 138 nM; on Cytochrome P450 3A4, above 25000 nM. In addition, the results for the IC50 (in series [7]; at Cytochrome P450 2C19; against Cytochrome P450 2D6) were 3500 nM, above 25000 nM and 4870 nM, respectively. The values for the half-life in series [5] and in series [6] were 3.35 h and above 5 h, respectively.

Turning to `CN(C)C1CCN(c2ccc(Cl)c(Cl)c2)c2ccccc21` (stereo unspecified), the IC50 in series [1] amounted to 5030 nM; in [2] it was 3 nM; in [4] it was 7140 nM.

For `NC1CCN(c2ccc(Cl)c(Cl)c2)c2ccccc21` (stereo unspecified), the IC50 worked out at 246 nM in series [1], 650 nM in [2] and 926 nM in series [4].

Regarding `CN(C)[C@H]1Cc2ccccc2N(c2ccc(Cl)c(Cl)c2)C1`, the figures for the half-inhibitory concentration (IC50) in series [1], in series [2] and in series [4] were 309 nM, 5560 nM and 3090 nM, respectively.
